Where two headings read alike, the source gives them in different places.
Legend:
mouse myeloma SP2/0 = test: CCK-8 cell survival assay, SP2/0; assay type: cell-based; details: CCK-8, 48 h, read-out: IC50 value of the inhibition on SP2/0
Experimental: (§1) a. […] Reagents • CCK8 reagent kit, purchased from TargetMol China; Annexin V-FITC/PI double staining cell apoptosis detection kit, purchased from Seven Biotech Company. c. Instruments • Multi-function microplate reader FLUOstar Omega, purchased from BMG LABTECH, Germany; • Flow cytometer, purchased from BD Company, United States. d. Experimental Method
(§2) The cells in logarithmic phase with good condition are taken and digested with trypsin, and the prepared culture medium is added to prepare a cell suspension, the cell density being adjusted to 5×10^4 cells/mL. The digested cells are inoculated into a 96-well plate, in which 100 μL of cell suspension is added to each well, and incubated overnight in a cell incubator at 37° C. with 5% CO2. After the cells grow adhered to the wall, the blank control group and the compound groups to be tested with different concentration gradients are set up respectively. […] The optical density value (OD) is measured by using a multifunctional enzyme-linked immunosorbent assay instrument, the wavelength setting to 450 nm. The experiment is repeated for three times, the cell survival rates of different drug concentrations in each group are calculated and counted according to a formula: cell survival rate=(experimental group−blank control group/control group)×100%, and the results are calculated with GraphPad Prism software.

cancer cell HELA = test: MTT cell inhibition assay, HELA; assay type: cell-based; details: 48 h
Experimental: (§4) Two cancer cell lines HELA and MCF-7 in the logarithmic phase and the human normal cell line 293T are taken and the cells thereof are counted with a cell counting plate, and then the concentration of the cell suspension is adjusted to 10^5 cells/mL. The cells are inoculated into a 96-well plate with 100 μL of cell suspension for each well. After the cell suspension is evenly distributed, and the plate is placed into a CO2 incubator for incubation. […] For each drug to be tested and control groups, 100 μL of the drug to be tested is added to each well; and four parallel replicates are set for each concentration. After 48 h cultivation, 10 μL MTT is added for another 4 h cultivation, and the supernatant is discarded. 100 μL analytically pure dimethyl sulfoxide is added, and shaken evenly on a shaking table. After the solution is completely uniform, its absorbance is measured at a wavelength of 490 nm with a microplate reader. The experiment is repeated twice.

human melanoma A375 = test: CCK-8 cell survival assay, A375; assay type: cell-based; details: CCK-8, 48 h, read-out: IC50 value of the inhibition on A375
Experimental: as §1, §2

[1] = tested on: human lung cancer cell A549; test: CCK-8 cell survival assay, A549; assay type: cell-based; details: CCK-8, 48 h, read-out: IC50 value of the inhibition on A549
Experimental: as §1, §2

cancer cell MCF-7 = test: MTT cell inhibition assay, MCF-7; assay type: cell-based
Experimental: as §4

human normal cell 293T = test: MTT cytotoxicity assay, human normal cell 293T; assay type: cell-based; details: 48 h, read-out: IC50 value of the inhibition on human normal cell 293T
Experimental: Two cancer cell lines HELA and MCF-7 in the logarithmic phase and the human normal cell line 293T are taken and the cells thereof are counted with a cell counting plate, and then the concentration of the cell suspension is adjusted to 10^5 cells/mL. The cells are inoculated into a 96-well plate with 100 μL of cell suspension for each well. After the cell suspension is evenly distributed, and the plate is placed into a CO2 incubator for incubation. The drug to be tested is added after the cells grow uniformly and have spread on all the bottom of the culture dish. DMEM culture solution is used as a negative control group (the drug to be tested is completely dissolved in the culture solution without dissolving it in DMSO), and cisplatin is used as a positive control group. For each drug to be tested and control groups, 100 μL of the drug to be tested is added to each well; and four parallel replicates are set for each concentration. After 48 h cultivation, 10 μL MTT is added for another 4 h cultivation, and the supernatant is discarded. 100 μL analytically pure dimethyl sulfoxide is added, and shaken evenly on a shaking table. After the solution is completely uniform, its absorbance is measured at a wavelength of 490 nm with a microplate reader. The experiment is repeated twice.

[2] = tested on: human triple negative breast cancer MDA-MB-231; test: CCK-8 cell survival assay, MDA-MB-231; assay type: cell-based; details: CCK-8, 48 h, read-out: IC50 value of the inhibition on MDA-MB-231
Experimental: as §1, §2

A375 Human melanoma = test: Flow cytometric detection of cell apoptosis (Annexin V-FITC/PI), A375; assay type: cell-based; details: 48 h
Experimental: (§3) The cells that are in logarithmic phase and have good condition are taken, digested with trypsin, the prepared culture medium is added to prepare a cell suspension, and the cell density is adjusted to 5×10^4 cells/mL. The digested cells are inoculated in 6-well plate, in which 2 mL cell suspension is added to each well, and incubated overnight in a cell incubator at 37° C. with 5% CO2. After the cells are adhered to the wall, a blank control group and the group of experimental drug to be tested with different concentration gradients are set respectively. 2 mL drug is added to each well for further cultivation for 48 h, and EDTA-free trypsin is used for cell digestion and the digested cells are collected. For the apoptosis detection, the collected cells are required to be adjusted to the cell density of 1×10^6 cells/mL, put into a 5 mL centrifuge tube and centrifuged at 1000 rpm for 5 min, and then washed with PBS for three times. 100 μL Binding Buffer is added to resuspend the cells, and except for the single-stained control and blank control cells, 5 μL FITC and 5 μL PI are added to each tube, mixed gently, and incubated at room temperature in the dark for 15 min. 400 μL Binding Buffer is added into each well before testing on the machine, and mixed and tested on the machine. • Blank control: drug-induced apoptotic cells—without adding a fluorescent reagent (the voltage of scattered light is adjusted to determine the FSC SSC of the population). • Negative control: normal cells (without drug treatment)—added with all the fluorescent staining reagents of the experiment (at the lower left corner, the voltage of the two fluorescent channels is determined). • Single-stained control: one tube each for FITC and PI, positive control for compensation adjustment: drug-induced apoptotic cells or heat-induced apoptotic cells are added with all fluorescent reagents of the experiment (confirming that there is no problem with reagents, instruments and operations).

[3] = tested on: A549 Human lung cancer cell; test: Flow cytometric detection of cell apoptosis (Annexin V-FITC/PI), A549; assay type: cell-based; details: 48 h
Experimental: as §3

KM mice = test: Mouse toxicity test (acute, intraperitoneal); assay type: in vivo
From the text: 12 KM mice with body weight 18 g to 22 g and age of 4 to 6 weeks are taken and fed adaptively for 7 days. All mice may eat freely and be provided with sufficient fresh drinking water. The feeding environment for mice meets the standard of SPF laboratory animal level environmental facility.
The behavioral changes after administration and death within 14 days of the animals are observed.

[4] = tested on: MDA-MB-231 Human triple negative breast cancer; test: Flow cytometric detection of cell apoptosis (Annexin V-FITC/PI), MDA-MB-231; assay type: cell-based; details: 48 h
Experimental: as §3

SP2/0 Mouse myeloma = test: Flow cytometric detection of cell apoptosis (Annexin V-FITC/PI), SP2/0; assay type: cell-based; details: for Apoptosis in early stage / Apoptosis in late stage: 48 h
Experimental: as §3

[5] = KM mice, 40 mg/kg intraperitoneal

## N.N.[Cl][Pt][Cl] [Cisplatin, cisplatin, reference compound]
Mouse myeloma SP2/0
  IC50: 17.4 ± 1.24 µM
Cancer cell HELA
  IC50: 13.2 µM
Human melanoma A375
  IC50: 16.4 ± 0.36 µM
[1]
  IC50: 35.8 ± 1.89 µM
Cancer cell MCF-7; 48 h
  IC50: 14.2 µM
Human normal cell 293T
  IC50: 17.3 µM
[2]
  IC50: 23.4 ± 1.75 µM

## Cc1ccc2c(c1)C13CCNC1C1(C)c4[nH]c5ccc(C)cc5c4CCN1C3N2 (stereo not shown) [Compound 20]
Cancer cell HELA; Homo sapiens, HeLa
  IC50: 40.1 µM

## Cc1ccc2c(c1)C13CCNC1(C)C1(C)c4[nH]c5ccc(C)cc5c4CCN1C3N2 (stereo not shown) [Compound 15]
Cancer cell HELA; Homo sapiens, HeLa
  IC50: 23.6 µM
Cancer cell MCF-7; Homo sapiens, MCF7, 48 h
  IC50: 29.8 µM
Human normal cell 293T; Homo sapiens, HEK-293T
  IC50: 134 µM

## COc1ccc2c(c1)C13CCNC1(C)C1(C)c4[nH]c5ccc(OC)cc5c4CCN1C3N2 (stereo not shown) [Compound 14]
Mouse myeloma SP2/0; Mus musculus
  IC50: 15.1 ± 2.91 µM
A375 Human melanoma; A375, 10 μM
  Apoptosis in early stage: 27.41 ± 1.87%
  Apoptosis in late stage: 10.03 ± 1.87%
A375 Human melanoma; A375, 20 μM
  Apoptosis in early stage: 34.09 ± 3.2%
  Apoptosis in late stage: 13.17 ± 2.30%
Human melanoma A375; Homo sapiens, A-375
  IC50: 17.1 ± 1.45 µM
[1]; Homo sapiens, A549
  IC50: 30.8 ± 1.72 µM
[3]; A549, 10 μM
  Apoptosis in early stage: 4.12 ± 1.73%
  Apoptosis in late stage: 9.70 ± 1.18%
[3]; A549, 30 μM
  Apoptosis in early stage: 16.23 ± 0.90%
  Apoptosis in late stage: 16.08 ± 0.62%
[3]; A549, 60 μM
  Apoptosis in early stage: 41.28 ± 5.36%
  Apoptosis in late stage: 27.32 ± 1.22%
KM mice; KM mice, 20 mg/kg intraperitoneal
  behavioral changes after administration: no abnormalities
KM mice; [5]
  behavior and spirit of the animals: normal
  death within 14 days: no death occurs
KM mice; KM mice, 60 mg/kg intraperitoneal
  death within 14 days: one animal dies on the sixth day
KM mice; KM mice, 80 mg/kg intraperitoneal
  death within 14 days: two animals die on the second day
KM mice; KM mice, intraperitoneal, single injection, 14 days observation
  lethal dose: about 60 mg/kg
KM mice; mouse, in vivo, ip, 20 mg/kg
  body weight / weight gain: not significantly different
KM mice; mouse, in vivo, ip, 40 mg/kg
  weight gain compared with the negative control group: slower
[4]; MDA-MB-231, 15 μM
  Apoptosis in early stage: 9.21 ± 1.14%
  Apoptosis in late stage: 13.41 ± 1.24%
[4]; MDA-MB-231, 30 μM
  Apoptosis in early stage: 17.70 ± 3.31%
  Apoptosis in late stage: 16.33 ± 0.72%
[4]; MDA-MB-231, 45 μM
  Apoptosis in early stage: 20.83 ± 2.79%
  Apoptosis in late stage: 23.66 ± 1.70%
[2]; Homo sapiens, MDA-MB-231
  IC50: 26 ± 1.43 µM
SP2/0 Mouse myeloma; SP2/0, 10 μM
  Apoptosis in early stage: 13.15 ± 0.57%
  Apoptosis in late stage: 13.44 ± 1.50%
SP2/0 Mouse myeloma; SP2/0, 20 μM
  Apoptosis in early stage: 35.97 ± 3.37%
  Apoptosis in late stage: 26.65 ± 1.64%
SP2/0 Mouse myeloma; SP2/0, 30 μM
  total apoptosis rate at early and late stages: 97%
  Apoptosis in early stage: 58.56 ± 1.26%
  Apoptosis in late stage: 39.36 ± 0.87%

Reference: patent publication US20240140950A1, “NITROGEN-CONTAINING POLYCYCLIC AROMATIC COMPOUND, and PREPARATION METHOD AND APPLICATION THEREOF” (priority 2021, published 2024)
